This note sets out measurements from patent US9365522B2, “Pyrazole amide derivative” (AMGEN INC., priority 2015, dated 2016).

Structures are written as SMILES.

This test has as its target T1, ligand binding domain of human ROR gamma (Homo sapiens, UniProt P51449).
T1 construct: NM_001001523; expressed in transfected cells; host or cells: HEK293T
T1 sequence (P51449 247-497 isoform P51449-2): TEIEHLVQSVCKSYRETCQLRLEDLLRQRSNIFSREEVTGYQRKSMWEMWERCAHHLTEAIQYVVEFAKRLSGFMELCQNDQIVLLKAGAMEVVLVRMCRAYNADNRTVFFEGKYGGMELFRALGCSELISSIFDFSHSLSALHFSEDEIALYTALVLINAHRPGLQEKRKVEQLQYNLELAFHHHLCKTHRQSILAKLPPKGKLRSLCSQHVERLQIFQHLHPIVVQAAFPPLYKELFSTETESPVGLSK
Description: ROR gamma reporter gene assay (GAL4-RORγ LBD luciferase, Dual-Glo). The class given is cell-based. The following applies: HEK293T cells transfected with pM-ROR gamma, 8 concentrations 3.5 nM to 10.5 μM, 24 h incubation; read-out: result (pIC50, inhibition of RORγ transcriptional activity) (converted). The essentials:
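HEK293T cells were co-transfected with GAL4 DBD fused to human RORγ LBD (aa 247-497), a 5×UAS firefly luciferase reporter and CMV-driven renilla luciferase, in medium with 10% charcoal-stripped FBS.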
(In a reporter assay the amount or activity of a reporter protein is the signal.)
Regarding `CC1(C)CC(N(CC(=O)c2c(Cl)cncc2Cl)C(=O)c2cnn([C@H]3CC[C@H](C(=O)O)CC3)c2C(F)(F)F)CO1` (stereo partly drawn) [Example 208, trans-4-(4-((2-(3,5-dichloropyridin-4-yl)-2-oxoethyl)-(5,5-dimethyloxolan-3-yl)carbamoyl)-5-(trifluoromethyl)pyrazol-1-yl)cyclohexane-1-carboxylic acid], the IC50 is 302000 pM.
The value for `O=C(CN(Cc1cc(F)cc(F)c1)C(=O)c1cnn([C@H]2CC[C@H](C(=O)O)CC2)c1C(F)(F)F)c1c(Cl)n[nH]c1Cl` [Example 209, trans-4-(4 ((2-(3,5-dichloro-1H-pyrazol-4-yl)-2-oxoethyl)-((3,5-difluorophenyl)methyl)carbamoyl)-5-(trifluoromethyl)pyrazol-1-yl)cyclohexane-1-carboxylic acid] was over 1e+07 pM; that for `CC1(C#N)CCC(N(CC(=O)c2c(Cl)cncc2Cl)C(=O)c2cnn([C@H]3CC[C@H](C(=O)O)CC3)c2C(F)(F)F)C1` (stereo partly drawn) [Example 210, trans-4-(4-((3-cyano-3-methylcyclopentyl)-(2-(3,5-dichloropyridin-4-yl)-2-oxoethyl)carbamoyl)-5-(trifluoromethyl)pyrazol-1-yl)cyclohexane-1-carboxylic acid] was 1.02e+06 pM; that for `CC1(C)[C@@H]2C[C@H](N(CC(=O)c3c(Cl)cncc3Cl)C(=O)c3cnn([C@H]4CC[C@H](C(=O)O)CC4)c3C(F)(F)F)C[C@@H]21` [Example 211, trans-4-(4-((2-(3,5-dichloropyridin-4-yl)-2-oxoethyl)-((1R,3r,5S)-6,6-dimethyl-3-bicyclo[3.1.0]hexanyl)carbamoyl)-5-(trifluoromethyl)pyrazol-1-yl)cyclohexane-1-carboxylic acid] was 22400 pM.
The value for `O=C(CN(C(=O)c1cnn([C@H]2CC[C@H](C(=O)O)CC2)c1C(F)(F)F)[C@H]1CC[C@@H](C(F)(F)F)CC1)c1c(Cl)cncc1Cl` [Example 212, trans-4-(4-((2-(3,5-dichloropyridin-4-yl)-2-oxoethyl)-(4-(trifluoromethyl)cyclohexyl)carbamoyl)-5-(trifluoromethyl)pyrazol-1-yl)cyclohexane-1-carboxylic acid] was 20000 pM; that for `O=C(CN(C(=O)c1cnn([C@H]2CC[C@H](C(=O)O)CC2)c1C(F)(F)F)[C@H]1CC[C@H](C(F)(F)F)CC1)c1c(Cl)cncc1Cl` [Example 213, trans-4-(4-((2-(3,5-dichloropyridin-4-yl)-2-oxoethyl)-(4-(trifluoromethyl)cyclohexyl)carbamoyl)-5-(trifluoromethyl)pyrazol-1-yl)cyclohexane-1-carboxylic acid] was 112000 pM; that for `COc1cccc(Cl)c1C(=O)CN(CC#CC(C)(C)C)C(=O)c1cnn([C@H]2CC[C@](C)(C(=O)O)CC2)c1C(F)(F)F` [Example 214, trans-4-(4-((2-(2-chloro-6-methoxyphenyl)-2-oxoethyl)-(4,4-dimethylpent-2-ynyl)carbamoyl)-5-(trifluoromethyl)pyrazol-1-yl)-1-methylcyclohexane-1-carboxylic acid] was 324000 pM.
As for `O=C(CN(C(=O)c1cnn([C@H]2CC[C@H](C(=O)O)CC2)c1C(F)(F)F)C1CC2CCC1C2)c1c(Cl)cncc1Cl` (stereo partly drawn) [Example 215, trans-4-(4-(3-bicyclo[2.2.1]heptanyl-(2-(3,5-dichloropyridin-4-yl)-2-oxoethyl)carbamoyl)-5-(trifluoromethyl)pyrazol-1-yl)cyclohexane-1-carboxylic acid], the figure is 32400 pM; as for `O=C(CN(Cc1cc(F)cc(F)c1)C(=O)c1cnn([C@H]2CC[C@H](C(=O)O)CC2)c1C(F)(F)F)c1c(Cl)nsc1Cl` [Example 216, trans-4-(4-((2-(3,5-dichloro-1,2-thiazol-4-yl)-2-oxoethyl)-((3,5-difluorophenyl)methyl)carbamoyl)-5-(trifluoromethyl)pyrazol-1-yl)cyclohexane-1-carboxylic acid], over 1.05e+06 pM.
As for `CC(C)(C)C#CCN(CC(=O)c1c(Cl)cccc1C(F)(F)F)C(=O)c1cnn([C@H]2CC[C@](C)(C(=O)O)CC2)c1C(F)(F)F` [Example 217, trans-4-(4-((2-(2-chloro-6-(trifluoromethyl)phenyl)-2-oxoethyl)-(4,4-dimethylpent-2-ynyl)carbamoyl)-5-(trifluoromethyl)pyrazol-1-yl)-1-methylcyclohexane-1-carboxylic acid], the IC50 was 219000 pM.
As for `CC(C)(C)C#CCN(CC(=O)c1c(Cl)cc(F)cc1Cl)C(=O)c1cnn([C@H]2CC[C@](C)(C(=O)O)CC2)c1C(F)(F)F` [Example 218, trans-4-(4-((2-(2,6-dichloro-4-fluorophenyl)-2-oxoethyl)-(4,4-dimethylpent-2-ynyl)carbamoyl)-5-(trifluoromethyl)pyrazol-1-yl)-1-methylcyclohexane-1-carboxylic acid], the figure is 339000 pM; as for `CC1(C)[C@@H]2C[C@H](N(CC(=O)c3c(Cl)cc(Cl)cc3Cl)C(=O)c3cnn([C@H]4CC[C@](C)(C(=O)O)CC4)c3C(F)(F)F)C[C@@H]21` [Example 219, trans-4-(4-(((1R,3r,5S)-6,6-dimethyl-3-bicyclo[3.1.0]hexanyl)-(2-oxo-2-(2,4,6-trichlorophenyl)ethyl)carbamoyl)-5-(trifluoromethyl)pyrazol-1-yl)-1-methylcyclohexane-1-carboxylic acid], 4900 pM; as for `CC1(C)CCC(CN(CC(=O)c2c(Cl)cc(F)cc2Cl)C(=O)c2cnn([C@H]3CC[C@](C)(C(=O)O)CC3)c2C(F)(F)F)CC1` [Example 220, trans-4-(4-((2-(2,6-dichloro-4-fluorophenyl)-2-oxoethyl)-((4,4-dimethylcyclohexyl)methyl)carbamoyl)-5-(trifluoromethyl)pyrazol-1-yl)-1-methylcyclohexane-1-carboxylic acid], 105000 pM.
With `CC(C)(C)CN(CC(=O)c1c(Cl)cc(Cl)cc1Cl)C(=O)c1cnn([C@H]2CC[C@](C)(C(=O)O)CC2)c1C(F)(F)F` [Example 221, trans-4-(4-(2,2-dimethylpropyl-(2-oxo-2-(2,4,6-trichlorophenyl)ethyl)carbamoyl)-5-(trifluoromethyl)pyrazol-1-yl)-1-methylcyclohexane-1-carboxylic acid], the IC50 was 2950 pM.
As for `CC1(C)[C@@H]2C[C@H](N(CC(=O)c3c(Cl)cccc3C(F)(F)F)C(=O)c3cnn([C@H]4CC[C@](C)(C(=O)O)CC4)c3C(F)(F)F)C[C@@H]21` [Example 222, trans-4-(4-((2-(2-chloro-6-(trifluoromethyl)phenyl)-2-oxoethyl)-((1R,3r,5S)-6,6-dimethyl-3-bicyclo[3.1.0]hexanyl)carbamoyl)-5-(trifluoromethyl)pyrazol-1-yl)-1-methylcyclohexane-1-carboxylic acid], the figure is 4170 pM; as for `CC1(C)CC[C@@H](N(CC(=O)c2c(Cl)cncc2Cl)C(=O)c2cnn([C@H]3CC[C@H](C(=O)O)CC3)c2C(F)(F)F)C1` [Example 223, trans-4-(4-((2-(3,5-dichloropyridin-4-yl)-2-oxoethyl)-((1R)-3,3-dimethylcyclopentyl)carbamoyl)-5-(trifluoromethyl)pyrazol-1-yl)cyclohexane-1-carboxylic acid], 50100 pM.
